Calls of active or inactive are those of the source. The rule behind the calls is not given here.
Key:
[1] = target: T1, Indoleamine 2,3-dioxygenase 1 (Homo sapiens, UniProt P14902); test: Inhibition of IDO1 (unknown origin) assessed as reduction in kynurenine production using L-tryptophan as substrate at 50 uM incubated for 1 hr by absorbance based microplate reader analysis relative to control
Target sequence in this assay (P14902 whole entry, looked up): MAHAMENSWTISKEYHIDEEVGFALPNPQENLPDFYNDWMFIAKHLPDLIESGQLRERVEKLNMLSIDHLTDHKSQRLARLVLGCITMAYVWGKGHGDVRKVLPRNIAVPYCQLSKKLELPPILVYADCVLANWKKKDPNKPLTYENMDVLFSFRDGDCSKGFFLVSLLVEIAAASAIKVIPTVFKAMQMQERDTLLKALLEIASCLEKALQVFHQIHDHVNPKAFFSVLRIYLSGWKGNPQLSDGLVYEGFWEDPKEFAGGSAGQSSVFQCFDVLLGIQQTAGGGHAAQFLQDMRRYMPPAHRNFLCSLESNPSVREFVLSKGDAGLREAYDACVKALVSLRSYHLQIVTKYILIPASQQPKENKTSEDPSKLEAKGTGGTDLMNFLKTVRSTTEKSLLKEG

[2] = target: T1, Indoleamine 2,3-dioxygenase 1; test: Inhibition of IDO1 (unknown origin) assessed as reduction in kynurenine production using L-tryptophan as substrate incubated for 1 hr by absorbance based microplate reader analysis
Target sequence in this assay (P14902 whole entry): as the sequence (P14902 whole entry, looked up) above

[3] = target: T2, Tryptophan 2,3-dioxygenase (Homo sapiens, UniProt P48775); test: Inhibition of TDO (unknown origin) assessed as reduction in N-formylkynurenine formation using L-tryptophan as substrate at 50 uM incubated for 75 mins by UV absorbance based analysis relative to control
Target sequence in this assay (P48775 whole entry, looked up): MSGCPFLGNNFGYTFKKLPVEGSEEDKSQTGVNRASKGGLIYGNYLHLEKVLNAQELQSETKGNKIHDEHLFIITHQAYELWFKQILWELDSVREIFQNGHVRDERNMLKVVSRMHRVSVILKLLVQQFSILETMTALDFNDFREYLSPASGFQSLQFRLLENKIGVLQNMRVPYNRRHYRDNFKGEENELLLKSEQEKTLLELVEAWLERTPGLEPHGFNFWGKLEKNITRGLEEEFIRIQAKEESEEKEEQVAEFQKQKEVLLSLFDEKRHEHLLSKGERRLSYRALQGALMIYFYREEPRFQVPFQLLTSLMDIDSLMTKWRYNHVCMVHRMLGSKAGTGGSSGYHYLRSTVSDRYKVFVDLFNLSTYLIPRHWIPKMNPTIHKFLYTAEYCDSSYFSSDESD

[4] = target: T2, Tryptophan 2,3-dioxygenase; test: Inhibition of TDO (unknown origin) assessed as reduction in N-formylkynurenine formation using L-tryptophan as substrate incubated for 75 mins by UV absorbance based analysis
Target sequence in this assay (P48775 whole entry): as the sequence (P48775 whole entry, looked up) above

BV-2 [5] = test: Antiinflammatory activity in LPS stimulated mouse BV-2 cells assessed as reduction in COX2 expression at 0.5 to 2 uM pretreated with compound for 1 hr followed by LPS stimulation and measured after 24 hrs by qRT-PCR analysis; type: functional, cell-based; conditions: dose 0.5-2 µM, time 25.0 hrs
BV-2 [6] = test: Antiinflammatory activity in LPS stimulated mouse BV-2 cells assessed as reduction in TNF-alpha expression at 0.5 to 2 uM pretreated with compound for 1 hr followed by LPS stimulation and measured after 24 hrs by qRT-PCR analysis; type: functional, cell-based; conditions: dose 0.5-2 µM, time 25.0 hrs
[7] = Half life in C57BL/6J mouse at 20 mg/kg, ip measured up to 24 hrs by LC-MS/MS analysis; type: ADME, organism-based; conditions: in vivo
[8] = Tmax in C57BL/6J mouse at 20 mg/kg, iv measured up to 24 hrs by LC-MS/MS analysis; type: ADME, organism-based; conditions: in vivo
[9] = Cmax in C57BL/6J mouse at 20 mg/kg, iv measured up to 24 hrs by LC-MS/MS analysis; type: ADME, organism-based; set-up: time < 24 hrs, dose 20 mg/kg, route iv; conditions: in vivo
[10] = Cmax in C57BL/6J mouse at 20 mg/kg, ip measured up to 24 hrs by LC-MS/MS analysis; type: ADME, organism-based; set-up: dose 20 mg/kg, time < 24 hrs, route ip; conditions: in vivo
[11] = AUC (0 to 24 hrs) in C57BL/6J mouse at 20 mg/kg, iv measured up to 24 hrs by LC-MS/MS analysis; type: ADME, organism-based; set-up: dose 20 mg/kg, time < 24 hrs, route iv; conditions: in vivo
[12] = AUC (0 to 24 hrs) in C57BL/6J mouse at 20 mg/kg, ip measured up to 24 hrs by LC-MS/MS analysis; type: ADME, organism-based; set-up: dose 20 mg/kg, time < 24 hrs, route ip; conditions: in vivo
[13] = MRT (0 to 24 hrs) in C57BL/6J mouse at 20 mg/kg, ip measured up to 24 hrs by LC-MS/MS analysis; type: ADME, organism-based; conditions: in vivo
[14] = MRT (0 to infinity) in C57BL/6J mouse at 20 mg/kg, iv measured up to 24 hrs by LC-MS/MS analysis; type: ADME, organism-based; conditions: in vivo
[15] = MRT (0 to infinity) in C57BL/6J mouse at 20 mg/kg, ip measured up to 24 hrs by LC-MS/MS analysis; type: ADME, organism-based; conditions: in vivo
[16] = Apparent volume of distribution in C57BL/6J mouse at 20 mg/kg, […] measured up to 24 hrs by LC-MS/MS analysis; type: ADME, organism-based; conditions: in vivo, read-out: Vz
[17] = Bioavailability in C57BL/6J mouse at 20 mg/kg, […] measured up to 24 hrs by LC-MS/MS analysis; type: ADME, organism-based; conditions: in vivo
[18] = Acute toxicity in mouse assessed as pathological changes in heart at 10 to 20 mg/kg, ip administered once daily for 20 days by hematoxyin-eosin staining based analysis; type: organism-based; conditions: in vivo, 480 h, dose 10-20 mg/kg, time 20 day
[19] = Acute toxicity in mouse assessed as pathological changes in liver at 10 to 20 mg/kg, ip administered once daily for 20 days by hematoxyin-eosin staining based analysis; type: organism-based; conditions: in vivo, 480 h, dose 10-20 mg/kg, time 20 day
[20] = Acute toxicity in mouse assessed as pathological changes in spleen at 10 to 20 mg/kg, ip administered once daily for 20 days by hematoxyin-eosin staining based analysis; type: organism-based; conditions: in vivo, 480 h, dose 10-20 mg/kg, time 20 day
[21] = Acute toxicity in mouse assessed as pathological changes in lung at 10 to 20 mg/kg, ip administered once daily for 20 days by hematoxyin-eosin staining based analysis; type: organism-based; conditions: in vivo, 480 h, dose 10-20 mg/kg, time 20 day
[22] = Acute toxicity in mouse assessed as pathological changes in kidney at 10 to 20 mg/kg, ip administered once daily for 20 days by hematoxyin-eosin staining based analysis; type: organism-based; conditions: in vivo, 480 h, dose 10-20 mg/kg, time 20 day
[23] = Acute toxicity in mouse assessed as change in body weight at 10 to 20 mg/kg, ip administered once daily and measured every day for 20 days; type: organism-based; conditions: in vivo, 480 h, dose 10-20 mg/kg, time 20 day
[24] = Acute toxicity in mouse assessed as pathological changes in liver at 30 mg/kg, ip administered once daily for 20 days by hematoxyin-eosin staining based analysis; type: organism-based; conditions: in vivo, 480 h, time 20 day
[25] = Acute toxicity in mouse assessed as reduction in body weight at 30 mg/kg, ip administered once daily and measured every day for 20 days; type: organism-based; conditions: in vivo, 480 h, time 20 day
Mus musculus [26] = test: Antidepressant activity in LPS induced mouse model assessed as rescue of decrease in immobility time at 20 mg/kg, ip pretreated with compound administered once daily for 2 days followed by LPS injection by tail suspension test; type: functional, organism-based; conditions: time 2.0 day
Mus musculus [27] = test: Antidepressant activity in LPS induced mouse model assessed as rescue of decrease in immobility time at 20 mg/kg, ip pretreated with compound administered once daily for 2 days followed by LPS injection by forced swim test; type: functional, organism-based; conditions: time 2.0 day
Mus musculus [28] = test: Antidepressant activity in LPS induced mouse model assessed as suppression of microglia activation in hippocampus at 20 mg/kg, ip pretreated with compound administered once daily for 2 days followed by LPS injection; type: functional, organism-based; conditions: time 2.0 day
Mus musculus [29] = test: Antiinflammatory activity in LPS induced mouse assessed as reduction in TNF-alpha expression in hippocampus at 20 mg/kg, ip pretreated with compound administered once daily for 2 days followed by LPS injection by qPCR analysis; type: functional, organism-based; conditions: time 2.0 day
Mus musculus [30] = test: Antiinflammatory activity in LPS induced mouse assessed as rescue of increase in TNF-alpha expression in activated microglia at 20 mg/kg, ip pretreated with compound administered once daily for 2 days followed by LPS injection; type: functional, organism-based; conditions: time 2.0 day
Mus musculus [31] = test: Downregulation of IDO1 expression in hippocampus of LPS induced mouse at 20 mg/kg, ip pretreated with compound administered once daily for 2 days followed by LPS injection by Western blotting analysis; type: functional, organism-based; conditions: time 2.0 day
Mus musculus [32] = test: Downregulation of kynurenine level in brain of LPS induced mouse at 20 mg/kg, ip pretreated with compound administered once daily for 2 days followed by LPS injection by UHPLC-HRMS analysis; type: functional, organism-based; conditions: time 2.0 day
Mus musculus [33] = test: Downregulation of kynurenine level in serum of LPS induced mouse at 20 mg/kg, ip pretreated with compound administered once daily for 2 days followed by LPS injection by UHPLC-HRMS analysis; type: functional, organism-based; conditions: time 2.0 day
[34] = AUC (0 to infinity) in C57BL/6J mouse at 20 mg/kg, iv measured up to 24 hrs by LC-MS/MS analysis; type: ADME, organism-based; set-up: dose 20 mg/kg, time < 24 hrs, route iv; conditions: in vivo
[35] = AUC (0 to infinity) in C57BL/6J mouse at 20 mg/kg, ip measured up to 24 hrs by LC-MS/MS analysis; type: ADME, organism-based; set-up: dose 20 mg/kg, time < 24 hrs, route ip; conditions: in vivo

SMILES: c1ccc2c(c1)[nH]c1c(-c3c[nH]cn3)nccc12
- inhibition [1]: 98%
- IC50 [2]: 3530 nM
- inhibition [3]: 92%
- IC50 [4]: 1150 nM
- Activity (BV-2 [5]): Active
- Activity (BV-2 [6]): Active
- half-life [7]: 0.77 h
- Tmax [8]: 0.25 h
- Cmax [9]: 5540 ng/mL
- Cmax [10]: 3880 ng/mL
- AUC(0-t) at 24 h [11]: 8550 ng·h/mL
- AUC(0-t) at 24 h [12]: 4490 ng·h/mL
- MRT last at 24 h [13]: 1.03 h
- MRT inf [14]: 1.85 h
- MRT inf [15]: 1.04 h
- Vd [16]: 7.84 L/kg
- bioavailability [17]: 52.5%
- Activity [18]: Non-Toxic
- Activity [19]: Non-Toxic
- Activity [20]: Non-Toxic
- Activity [21]: Non-Toxic
- Activity [22]: Non-Toxic
- Activity [23]: Non-Toxic
- Activity [24]: Toxic
- Activity [25]: Toxic
- Activity (Mus musculus [26]): Active
- Activity (Mus musculus [27]): Active
- Activity (Mus musculus [28]): Active
- Activity (Mus musculus [29]): Active
- Activity (Mus musculus [30]): Active
- Activity (Mus musculus [31]): Active
- Activity (Mus musculus [32]): Active
- Activity (Mus musculus [33]): Active
- AUC(0-inf) [34]: 8560 ng·h/mL
- AUC(0-inf) [35]: 4460 ng·h/mL
